What was measured:
[1] = molecular target: T1, Chymotrypsin-like elastase family member 2A (Sus scrofa) (UniProt P08419); assay: Compound was evaluated for the inhibition of porcine pancreatic elastase (PPE).
T1 sequence (whole entry): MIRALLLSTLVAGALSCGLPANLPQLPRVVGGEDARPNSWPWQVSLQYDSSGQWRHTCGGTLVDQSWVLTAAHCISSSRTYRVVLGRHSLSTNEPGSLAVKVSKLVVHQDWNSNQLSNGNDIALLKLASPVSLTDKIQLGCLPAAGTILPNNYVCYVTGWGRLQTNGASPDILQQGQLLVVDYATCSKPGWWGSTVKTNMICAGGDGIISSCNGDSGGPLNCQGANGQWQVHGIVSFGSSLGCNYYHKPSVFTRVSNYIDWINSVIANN

[2] = molecular target: T2, Neutrophil elastase (Homo sapiens) (UniProt P08246); assay: Compound was evaluated for the inhibition of human leukocyte elastase (HLE).
T2 sequence (whole entry): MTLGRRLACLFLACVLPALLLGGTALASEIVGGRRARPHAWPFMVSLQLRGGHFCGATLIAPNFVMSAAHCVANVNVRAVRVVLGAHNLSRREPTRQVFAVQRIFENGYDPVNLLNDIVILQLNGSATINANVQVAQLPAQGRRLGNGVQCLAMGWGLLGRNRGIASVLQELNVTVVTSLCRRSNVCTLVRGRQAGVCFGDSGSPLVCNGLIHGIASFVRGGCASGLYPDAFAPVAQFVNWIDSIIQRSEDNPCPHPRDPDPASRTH

[3] = molecular target: Chymotrypsinogen A (Bos taurus) (UniProt P00766); assay: Compound was evaluated for the inhibition of Chymotrypsinogen

Row | SMILES | k obs / 1 [1] | k obs / 1 [2] | k obs / 1 [3]
1 | Cc1ccc(S(=O)(=O)ON2C(=O)c3ccc(C)cc3C2=O)cc1 | 7400 M⁻¹ s⁻¹ | 58000 M⁻¹ s⁻¹ | 27000 M⁻¹ s⁻¹
2 | CC(C)S(=O)(=O)ON1C(=O)c2ccccc2C1=O | 370 M⁻¹ s⁻¹ | 63000 M⁻¹ s⁻¹ | 160000 M⁻¹ s⁻¹
3 | Cc1ccc2c(c1)C(=O)N(OS(C)(=O)=O)C2=O | 21000 M⁻¹ s⁻¹ | 30000 M⁻¹ s⁻¹ | 16000 M⁻¹ s⁻¹
4 | CS(=O)(=O)ON1C(=O)c2ccc(N)cc2C1=O | 24000 M⁻¹ s⁻¹ | 110000 M⁻¹ s⁻¹ | 12000 M⁻¹ s⁻¹
5 | CS(=O)(=O)ON1C(=O)c2ccccc2C1=O | 6500 M⁻¹ s⁻¹ | 61000 M⁻¹ s⁻¹ | 2700 M⁻¹ s⁻¹
6 | CC(C)S(=O)(=O)ON1C(=O)c2ccc(N)cc2C1=O | 22000 M⁻¹ s⁻¹ | 82000 M⁻¹ s⁻¹ | 11000 M⁻¹ s⁻¹
7 | Cc1ccc(S(=O)(=O)ON2C(=O)c3ccccc3C2=O)cc1 | 1400 M⁻¹ s⁻¹ | 78000 M⁻¹ s⁻¹ | 90000 M⁻¹ s⁻¹

— ChEMBL document CHEMBL1129761, “2-[(Alkylsulfonyl)oxy]-6-substituted-1H-isoindole-1,3(2H)-dione mechanism-based inhibitors of human leukocyte elastase” (Bioorg Med Chem Lett, 1996)
